Experimental data published in BindingDB's records for patent US20240101531 (Xenon Pharmaceuticals, 2024).

Biological target: Potassium voltage-gated channel subfamily KQT member 2/3 (Homo sapiens, UniProt O43525+O43526)
Assay: In Vitro Assay
Source text: This potassium flux assay employs the cell-permeable, potassium-sensitive dye, IPG-2 AM, to quantify potassium ion flux through potassium channels.In general, TREX HEK 293 or HEK 293 cells were stably transfected with either an inducible or non-inducible expression vector containing the full-length cDNA coding for the desired human KV7.2/KV7.3 or in combination with another full-length cDNA for a second desired human KV7 potassium channel. Potassium channel-expressing cell lines were induced with tetracycline (1 g/mL), if required, and plated on 384-well poly-D-lysine (PDL)-coated plates in culture media (DMEM, containing 10% FBS and 1% L-glutamine). After overnight incubation, culture media was removed and cells were loaded with 5 M IPG-2 AM dye for 1 hour in Assay buffer (140 mM NaCl, 20 mM RbCl, 2 mM CaCl2, 1 mM MgCl2, 10 mM HEPES (4-(2-hydroxyethyl)-1-piperazineethanesulfonic acid buffer), 10 mM glucose, adjusted with Tris to pH 7.4). Excess dye was removed, and cells incubated at room temperature for 20 minutes with or without test compound. […]

Potassium voltage-gated channel subfamily KQT member 2/3, sequence (O43526 whole entry): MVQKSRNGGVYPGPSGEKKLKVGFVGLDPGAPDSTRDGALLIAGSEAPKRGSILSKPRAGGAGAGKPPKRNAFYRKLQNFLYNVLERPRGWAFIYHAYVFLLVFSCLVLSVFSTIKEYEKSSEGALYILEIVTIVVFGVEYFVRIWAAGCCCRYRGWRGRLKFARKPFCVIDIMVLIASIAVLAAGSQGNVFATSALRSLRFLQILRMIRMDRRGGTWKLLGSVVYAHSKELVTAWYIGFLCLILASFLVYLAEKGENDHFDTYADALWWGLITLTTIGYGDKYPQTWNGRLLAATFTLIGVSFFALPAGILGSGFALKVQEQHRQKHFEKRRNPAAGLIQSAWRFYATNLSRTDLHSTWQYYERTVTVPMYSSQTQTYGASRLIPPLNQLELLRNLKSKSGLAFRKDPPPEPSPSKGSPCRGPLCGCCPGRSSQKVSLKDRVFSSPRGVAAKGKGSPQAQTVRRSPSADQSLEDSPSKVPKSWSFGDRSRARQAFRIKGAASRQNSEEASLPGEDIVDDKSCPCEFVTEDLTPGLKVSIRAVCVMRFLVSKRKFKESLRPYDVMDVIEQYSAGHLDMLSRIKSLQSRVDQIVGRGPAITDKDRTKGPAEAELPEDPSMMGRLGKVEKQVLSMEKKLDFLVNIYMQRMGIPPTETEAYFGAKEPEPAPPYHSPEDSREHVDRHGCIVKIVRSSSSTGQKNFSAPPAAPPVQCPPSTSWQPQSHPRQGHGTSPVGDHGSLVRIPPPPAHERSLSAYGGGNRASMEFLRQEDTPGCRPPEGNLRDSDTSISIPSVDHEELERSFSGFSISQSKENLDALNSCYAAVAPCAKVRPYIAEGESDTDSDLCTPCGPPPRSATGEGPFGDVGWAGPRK
Potassium voltage-gated channel subfamily KQT member 2/3, sequence (O43525 whole entry): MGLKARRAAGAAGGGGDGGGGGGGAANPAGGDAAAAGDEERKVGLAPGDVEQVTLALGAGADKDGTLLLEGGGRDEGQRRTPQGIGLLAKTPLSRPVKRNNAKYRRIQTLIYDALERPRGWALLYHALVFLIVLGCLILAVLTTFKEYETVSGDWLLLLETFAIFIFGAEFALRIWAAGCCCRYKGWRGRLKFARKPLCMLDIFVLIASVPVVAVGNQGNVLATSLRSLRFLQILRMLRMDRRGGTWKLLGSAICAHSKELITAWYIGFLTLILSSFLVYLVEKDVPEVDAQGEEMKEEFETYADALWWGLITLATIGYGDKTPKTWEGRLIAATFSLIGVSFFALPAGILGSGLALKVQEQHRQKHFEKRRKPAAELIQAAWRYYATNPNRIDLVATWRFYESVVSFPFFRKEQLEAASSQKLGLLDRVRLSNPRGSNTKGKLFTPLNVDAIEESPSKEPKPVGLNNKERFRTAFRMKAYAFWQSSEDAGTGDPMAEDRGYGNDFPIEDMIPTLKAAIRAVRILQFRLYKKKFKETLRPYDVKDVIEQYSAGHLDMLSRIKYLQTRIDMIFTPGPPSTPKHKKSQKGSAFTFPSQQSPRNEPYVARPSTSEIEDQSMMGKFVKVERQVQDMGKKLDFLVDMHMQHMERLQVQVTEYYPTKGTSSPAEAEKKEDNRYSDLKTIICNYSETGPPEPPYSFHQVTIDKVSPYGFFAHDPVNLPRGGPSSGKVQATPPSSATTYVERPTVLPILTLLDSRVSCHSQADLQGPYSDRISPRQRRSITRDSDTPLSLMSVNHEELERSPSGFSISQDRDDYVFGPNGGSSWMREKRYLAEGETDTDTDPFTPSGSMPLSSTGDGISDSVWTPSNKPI

EC50: < 1000 nM
Structure (SMILES): CC1(C)CC1(C#N)COc1ccc2c(Nc3ccc(Cl)nc3)nccc2c1 (stereo unspecified) [US20240101531, Example 330]
